In experiment [1] the test system is MIA PaCa-2 cells (KRAS G12C mutant). Briefly: MIA PaCa-2 cell anti-proliferation (CellTiter-Glo). The experiment is classed as cell-based. The following applies: Homo sapiens. The method, then:
The number of viable cells was determined using the CellTiter-Glo® assay to evaluate the anti-proliferation efficacy of compounds. […] The compounds were serially diluted 4-fold in DMSO to obtain 9 concentrations, and then further diluted with DMEM (10% FBS+2.5% horse serum+1% penicillin/streptomycin) cell culture medium to obtain the working solutions (2×), 15 μL of each working solution was added to the cell culture supernatant in each well, and the cells were further incubated for 3 days at 37° C. with 5% CO2. The plate was then equilibrated with CellTiter-Glo® reagent at room temperature (25° C.) for 30 minutes. After adding 25 μL of CellTiter-Glo®, reagent, the cells were thoroughly mixed with the CellTiter-Glo® reagent using a microplate shaker for 2 minutes, and then incubated at room temperature for at least 30 minutes. […] Data were analyzed using GraphPad Prism for IC50 values (Note: The negative control refers to the group without inhibitor).

In experiment [2] the test system is NCI-H358 cells (KRAS G12C mutant). Briefly: NCI-H358 cell proliferation inhibition (CellTiter-Glo). The following applies: Homo sapiens, NCI-H358, 72 h; H358 cells (G12C mutation), 3 days, Table 6; read-out: NCI-H358 (IC50). The experiment is classed as cell-based.
The target of experiment [3] is PI3Kα (Homo sapiens (Human), UniProt P42336). Briefly: Inhibition of PI3Kα efficacy assay (ADP-Glo kinase assay). The experiment is classed as biochemical. The following applies: read-out: PI3Kα inhibitory activity (IC50). The procedure, abridged: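 Eight five-fold dilutions of compound (2 mM DMSO stock) tested; kinase reaction with PI and ATP ran 60 min at RT, followed by ADP-Glo and detection reagent steps of 40 min each. Four-parameter logistic fitting gave IC50 values.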
Background: In ADP-Glo the light output rises with the ADP produced.

In experiment [4] the target is PI3Kδ (Homo sapiens (Human), UniProt O00329). Briefly: Inhibition of PI3Kδ efficacy assay (ADP-Glo kinase assay). The following applies: read-out: PI3Kδ inhibitory activity (IC50). The experiment is classed as biochemical. A digest of the protocol:
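Luminescent ADP-Glo readout of PI3Kδ: after a 60 min RT reaction with PI/ATP substrate, ATP depletion (40 min) and ADP detection (40 min) steps followed. Compounds tested as eight five-fold serial dilutions; inhibition rates fitted to log(inhibitor) vs. response, variable slope, for IC50.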

[5] abbreviates: 72 h, MIA Paca-2 cells, 3 days, Table 7, read-out: MIA PaCa-2 (IC50).

Like-named read-outs stand apart in the source and are kept apart here.

For orientation: IC50 means the point on the concentration scale where inhibition reaches its midpoint.

PI3Kδ, sequence (O00329 whole entry): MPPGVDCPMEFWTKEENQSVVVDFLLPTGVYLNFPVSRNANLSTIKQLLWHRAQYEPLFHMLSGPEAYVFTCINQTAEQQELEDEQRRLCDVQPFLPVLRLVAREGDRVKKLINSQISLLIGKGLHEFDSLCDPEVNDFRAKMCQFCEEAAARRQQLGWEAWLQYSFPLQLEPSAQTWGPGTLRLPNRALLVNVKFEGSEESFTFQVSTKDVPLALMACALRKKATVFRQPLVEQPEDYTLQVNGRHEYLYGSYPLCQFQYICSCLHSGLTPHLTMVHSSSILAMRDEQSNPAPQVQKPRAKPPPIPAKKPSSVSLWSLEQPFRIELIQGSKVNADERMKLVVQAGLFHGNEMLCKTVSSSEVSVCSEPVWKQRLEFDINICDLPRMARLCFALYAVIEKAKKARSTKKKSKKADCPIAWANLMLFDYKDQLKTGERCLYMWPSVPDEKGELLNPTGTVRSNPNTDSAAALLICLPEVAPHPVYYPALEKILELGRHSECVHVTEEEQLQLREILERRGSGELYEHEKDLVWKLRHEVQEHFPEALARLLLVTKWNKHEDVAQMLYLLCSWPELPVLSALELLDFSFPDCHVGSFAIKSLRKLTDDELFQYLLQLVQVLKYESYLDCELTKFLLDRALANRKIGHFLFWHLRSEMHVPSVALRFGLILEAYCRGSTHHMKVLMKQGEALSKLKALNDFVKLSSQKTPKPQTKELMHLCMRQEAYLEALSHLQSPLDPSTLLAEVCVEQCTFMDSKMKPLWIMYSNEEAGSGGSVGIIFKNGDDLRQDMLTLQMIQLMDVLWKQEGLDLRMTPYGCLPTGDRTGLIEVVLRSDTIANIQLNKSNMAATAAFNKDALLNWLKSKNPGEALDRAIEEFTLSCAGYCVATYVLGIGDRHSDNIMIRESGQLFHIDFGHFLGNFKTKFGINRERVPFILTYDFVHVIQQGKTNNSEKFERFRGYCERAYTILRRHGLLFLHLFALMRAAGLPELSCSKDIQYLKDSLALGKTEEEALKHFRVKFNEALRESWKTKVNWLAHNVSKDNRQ
PI3Kδ, sequence (P27986 whole entry partner): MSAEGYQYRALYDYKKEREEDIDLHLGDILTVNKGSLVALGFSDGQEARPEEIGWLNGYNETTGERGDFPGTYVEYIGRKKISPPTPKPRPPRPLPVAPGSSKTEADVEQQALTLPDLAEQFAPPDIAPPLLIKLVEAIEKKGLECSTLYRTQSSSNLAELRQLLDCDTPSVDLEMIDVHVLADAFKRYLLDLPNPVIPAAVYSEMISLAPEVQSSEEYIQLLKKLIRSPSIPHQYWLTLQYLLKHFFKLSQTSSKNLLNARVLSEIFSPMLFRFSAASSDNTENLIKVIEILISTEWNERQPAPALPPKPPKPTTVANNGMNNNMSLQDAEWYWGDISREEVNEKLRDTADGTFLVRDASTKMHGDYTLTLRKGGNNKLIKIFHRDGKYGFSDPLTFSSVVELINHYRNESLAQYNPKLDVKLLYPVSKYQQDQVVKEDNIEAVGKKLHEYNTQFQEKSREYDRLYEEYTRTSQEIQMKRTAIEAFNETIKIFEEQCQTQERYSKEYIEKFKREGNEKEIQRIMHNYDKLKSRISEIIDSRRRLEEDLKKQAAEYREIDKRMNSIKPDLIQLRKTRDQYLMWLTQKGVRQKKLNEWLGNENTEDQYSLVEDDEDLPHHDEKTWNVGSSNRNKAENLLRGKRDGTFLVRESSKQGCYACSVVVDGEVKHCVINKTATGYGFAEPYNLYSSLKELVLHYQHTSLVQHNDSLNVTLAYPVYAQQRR
PI3Kα, sequence (P42336 whole entry): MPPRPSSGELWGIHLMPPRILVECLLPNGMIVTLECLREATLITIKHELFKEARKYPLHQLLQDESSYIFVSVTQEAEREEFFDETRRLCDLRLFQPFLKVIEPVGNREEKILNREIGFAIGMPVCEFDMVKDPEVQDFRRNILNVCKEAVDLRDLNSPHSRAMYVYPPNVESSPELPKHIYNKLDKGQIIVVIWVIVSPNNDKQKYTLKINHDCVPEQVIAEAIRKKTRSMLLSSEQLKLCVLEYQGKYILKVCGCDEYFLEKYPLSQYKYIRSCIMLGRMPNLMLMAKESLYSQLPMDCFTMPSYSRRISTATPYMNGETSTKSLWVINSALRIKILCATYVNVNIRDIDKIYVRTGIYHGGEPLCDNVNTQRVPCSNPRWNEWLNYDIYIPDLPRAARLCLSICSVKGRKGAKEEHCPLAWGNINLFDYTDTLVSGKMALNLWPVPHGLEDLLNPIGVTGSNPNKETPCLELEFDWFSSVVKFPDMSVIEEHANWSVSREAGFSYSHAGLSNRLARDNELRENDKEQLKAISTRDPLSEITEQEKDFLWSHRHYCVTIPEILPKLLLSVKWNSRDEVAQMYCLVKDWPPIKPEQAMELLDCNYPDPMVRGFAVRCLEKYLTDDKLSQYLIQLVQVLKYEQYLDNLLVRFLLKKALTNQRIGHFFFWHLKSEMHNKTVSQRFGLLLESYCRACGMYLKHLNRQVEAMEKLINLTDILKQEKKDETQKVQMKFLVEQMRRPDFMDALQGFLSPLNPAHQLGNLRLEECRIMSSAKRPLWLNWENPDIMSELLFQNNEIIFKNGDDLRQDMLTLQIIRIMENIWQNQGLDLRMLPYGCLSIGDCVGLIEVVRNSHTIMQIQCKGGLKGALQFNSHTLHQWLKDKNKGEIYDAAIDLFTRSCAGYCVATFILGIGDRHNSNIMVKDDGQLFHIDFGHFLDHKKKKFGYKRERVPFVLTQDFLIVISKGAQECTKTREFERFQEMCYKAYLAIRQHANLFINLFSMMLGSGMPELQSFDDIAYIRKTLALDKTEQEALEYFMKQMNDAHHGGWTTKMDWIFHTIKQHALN
PI3Kα, sequence (P27986 whole entry partner): as the sequence (P27986 whole entry partner) above

On to `COc1ncc(-c2ccc3ncnc(N4CCN(C(=O)/C=C/C(C)=O)CC4)c3n2)cc1NS(=O)(=O)c1ccc(F)cc1Cl` [Example 135, (E)-2-chloro-4-fluoro-N-(2-methoxy-5-(4-(4-(4-oxopent-2-enoyl)piperazin-1-yl)pyrido[3,2-d]pyrimidin-6-yl)pyridin-3-yl)benzenesulfonamide], for which the IC50 in experiment [1] (setting [5]) turned out to be 9.1 nM.

For the compound `COc1ncc(-c2cc(C(F)(F)F)c3ncnc(N4CCN(C(=O)/C=C/C(C)=O)CC4)c3c2)cc1NS(=O)(=O)c1ccc(F)cc1F` [Example 243, (E)-2,4-difluoro-N-(2-methoxy-5-(4-(4-(4-oxopent-2-enoyl)piperazin-1-yl)-8-(trifluoromethyl)quinazolin-6-yl)pyridin-3-yl)benzenesulfonamide], the concentration for half-maximal inhibition (IC50) in experiment [2] is 720 nM; in experiment [3] (Table 4) it was 838 nM; in experiment [1] (MIA PaCa-2, 72 h, read-out: MIA PaCa-2 (IC50, nM)), 393 nM.

Turning to `C=CS(=O)(=O)N1CCN(c2ncnc3ccc(-c4cnc(OC)c(NS(=O)(=O)c5ccc(F)cc5F)c4)cc23)CC1` [Example 207, 2,4-difluoro-N-(2-methoxy-5-(4-(4-(vinylsulfonyl)piperazin-1-yl)quinazolin-6-yl)pyridin-3-yl)benzenesulfonamide], the IC50 turned out to be 40 nM in experiment [2] and 73.3 nM in experiment [1] (setting [5]).

In the case of `CSc1ncc(-c2ccc3ncnc(N4CCN(C(=O)/C=C/C(C)=O)CC4)c3c2)cc1NS(=O)(=O)c1ccc(F)cc1F` [Example 182, (E)-2,4-difluoro-N-(2-(methylthio)-5-(4-(4-(4-oxopent-2-enoyl)piperazin-1-yl)quinazolin-6-yl)pyridin-3-yl)benzene-sulfonamide], the IC50 in experiment [2] was 228 nM; in experiment [3] (Table 4), 0.65 nM; in experiment [1] (setting [5]), 202 nM.

Regarding `COc1ncc(-c2cc3c(N4CCN(C(=O)/C=C/C(C)=O)CC4)ncnc3cn2)cc1NS(=O)(=O)c1ccc(F)cc1F` [Example 245, (E)-2,4-difluoro-N-(2-methoxy-5-(4-(4-(4-oxopent-2-enoyl)piperazin-1-yl)pyrido[3,4-d]pyrimidin-6-yl)pyridin-3-yl)benzenesulfonamide], the values for the IC50 in experiment [2], in experiment [3] (Table 4) and in experiment [1] (setting [5]) were 497 nM, 14.9 nM and 827 nM, respectively.

Turning to `COc1ncc(-c2ccc3ncnc(N4CCN(C(=O)/C=C/C(C)=O)C[C@@H]4C)c3n2)cc1NS(=O)(=O)c1c(F)cccc1F` [Example 138, (S,E)-2,6-difluoro-N-(2-methoxy-5-(4-(2-methyl-4-(4-oxopent-2-enoyl)piperazin-1-yl)pyrido[3,2-d]pyrimidin-6-yl)pyridin-3-yl)benzenesulfonamide], the IC50 in experiment [1] (setting [5]) turned out to be 10.5 nM.

As to `COc1ncc(-c2ccc3ncnc(N4CCC5(CC4)CN(C(=O)/C=C/C(C)=O)C5)c3n2)cc1NS(=O)(=O)c1c(F)cccc1F` [Example 136, (E)-2,6-difluoro-N-(2-methoxy-5-(4-(2-(4-oxopent-2-enoyl)-2,7-diazaspiro[3.5]nonan-7-yl)pyrido[3,2-d]pyrimidin-6-yl)pyridin-3-yl)benzenesulfonamide], the IC50 in experiment [1] (setting [5]) was found to be 6.6 nM.

Turning to `COc1ncc(-c2ccc3ncnc(N4CC5CCC(C4)N5C(=O)/C=C/C(C)=O)c3n2)cc1NS(=O)(=O)c1c(F)cccc1F` [Example 137, 2,6-difluoro-N-(2-methoxy-5-(4-(8-((E)-4-oxopent-2-enoyl)-3,8-diazabicyclo[3.2.1]octan-3-yl)pyrido[3,2-d]pyrimidin-6-yl)pyridin-3-yl)benzenesulfonamide], the half-maximal inhibitory concentration (IC50) in experiment [1] (setting [5]) is 6.8 nM.

Turning to `C=CC(=O)N1CCN(c2ncnc3ccc(-c4cnc(Cl)c(NS(=O)(=O)c5ccc(F)cc5F)c4)cc23)CC1` [Example 33, N-(5-(4-(4-acryloylpiperazin-1-yl)quinazolin-6-yl)-2-chloropyridin-3-yl)-2,4-difluorobenzenesulfonamide], the IC50 in experiment [2] is 333 nM; in experiment [3] (Table 1), 12.6 nM; in experiment [4] (Table 1), 68.7 nM.

As for `COc1ncc(-c2ccc3ncnc(N4CCN(C(=O)/C=C/C(C)=O)CC4)c3c2)cc1NS(=O)(=O)C1CCCCC1` [Example 26, (E)-N-(2-methoxy-5-(4-(4-(4-oxopent-2-enoyl)piperazin-1-yl)quinazolin-6-yl)pyridin-3-yl)cyclohexanesulfonamide], the values for the IC50 in experiment [2], in experiment [3] (Table 1) and in experiment [4] (Table 1) were 142 nM, 44.6 nM and 265 nM, respectively.

For the compound `C=C(F)C(=O)N1CCN(c2ncnc3ccc(-c4cnc(OC)c(NS(=O)(=O)c5c(F)cccc5F)c4)cc23)[C@@H](C)C1` [Example 45, (S)-2,6-difluoro-N-(5-(4-(4-(2-fluoroacryloyl)-2-methylpiperazin-1-yl)quinazolin-6-yl)-2-methoxypyridin-3-yl) benzenesulfonamide], the IC50 amounted to 164 nM in experiment [2], 2.8 nM in experiment [3] (Table 2) and 38.6 nM in experiment [4] (Table 2).

In the case of `COc1ncc(-c2ccc3ncnc(N4CCN(C(=O)/C=C/S(C)(=O)=O)CC4)c3c2)cc1NS(=O)(=O)c1ccc(F)cc1F` [Example 75, (E)-2,4-difluoro-N-(2-methoxy-5-(4-(4-(3-(methylsulfonyl)acryloyl)piperazin-1-yl)quinazolin-6-yl)pyridin-3-yl)benzenesulfonamide], the IC50 in experiment [2] was 285 nM; in experiment [3] (Table 2), 0.78 nM; in experiment [4] (Table 2) it was 31.2 nM.

Take `C=CC(=O)N1CCN(c2ncnc3ccc(-c4cnc(Cl)c(NS(=O)(=O)c5ccc(Cl)s5)c4)cc23)CC1` [Example 35, N-(5-(4-(4-acryloylpiperazin-1-yl)quinazolin-6-yl)-2-chloropyridin-3-yl)-5-chlorothiophene-2-sulfonamide]: the results for the 50% inhibitory concentration (IC50) in experiment [2], in experiment [3] (Table 1) and in experiment [4] (Table 1) were 900 nM, 5.8 nM and 117 nM, respectively.

In the case of `COc1ncc(-c2ccc3ncnc(N4CCN(C(=O)C5OC5C(C)=O)CC4)c3c2)cc1NS(=O)(=O)c1ccc(F)cc1F` (stereo not shown) [Example 127, N-(5-(4-(4-(3-acetyloxirane-2-carbonyl)piperazin-1-yl)quinazolin-6-yl)-2-methoxypyridin-3-yl)-2,4-difluorobenzenesulfonamide], the IC50 in experiment [2] came out at 22.2 nM; in experiment [3] (Table 2) it was 1.9 nM; in experiment [4] (Table 2), 31.7 nM.

For `C=C(F)C(=O)N1CC2(CCN(c3ncnc4ccc(-c5cnc(OC)c(NS(=O)(=O)c6ccc(F)cc6F)c5)cc34)CC2)C1` [Example 19, 2,4-difluoro-N-(5-(4-(2-(2-fluoroacryloyl)-2,7-diazaspiro[3.5]nonan-7-yl)quinazolin-6-yl)-2-methoxypyridin-3-yl)benzenesulfonamide], the results for the IC50 in experiment [2], in experiment [3] (Table 1) and in experiment [4] (Table 1) were 22 nM, 4.7 nM and 57.8 nM, respectively.

Regarding `CC(=O)/C=C/C(=O)N1CCN(c2ncnc3ccc(-c4cnc(OC5CCCC5)c(NS(=O)(=O)c5ccc(F)cc5F)c4)cc23)CC1` [Example 107, (E)-N-(2-(cyclopentyloxy)-5-(4-(4-(4-oxopent-2-enoyl)piperazin-1-yl)quinazolin-6-yl)pyridin-3-yl)-2,4-difluorobenzenesulfonamide], the IC50 in experiment [2] came out at 405 nM; in experiment [3] (Table 2) it was 126 nM; in experiment [4] (Table 2), 794 nM.

`C=CC(=O)N1CCN(c2ncnc3ccc(-c4cnc(OC)c(NS(=O)(=O)c5ccc(F)cc5F)c4)cc23)C[C@@H]1CC#N` [Example 114, (S)-N-(5-(4-(4-acryloyl-3-(cyanomethyl)piperazin-1-yl)quinazolin-6-yl)-2-methoxypyridin-3-yl)-2,4-difluorobenzenesulfonamide]: the IC50 in experiment [2] was found to be 34.6 nM; in experiment [3] (Table 2) it was 1.4 nM; in experiment [4] (Table 2), 28.5 nM.

Consider `C=C(F)C(=O)N1CCN(c2ncnc3ccc(-c4cnc(OC)c(NS(=O)(=O)c5ccc(F)cc5F)c4)cc23)[C@@H](C)C1` [Example 9, (S)-2,4-difluoro-N-(5-(4-(4-(2-fluoroacryloyl)-2-methylpiperazin-1-yl)quinazolin-6-yl)-2-methoxypyridin-3-yl)benzenesulfonamide], for which the IC50 in experiment [2] is 350 nM; in experiment [3] (Table 1), 0.56 nM; in experiment [4] (Table 1) it was 9.05 nM.

On to `COC/C=C/C(=O)N1CCN(c2ncnc3ccc(-c4cnc(OC)c(NS(=O)(=O)c5ccc(F)cc5F)c4)cc23)CC1` [Example 64, (E)-2,4-difluoro-N-(2-methoxy-5-(4-(4-(4-methoxybut-2-enoyl)piperazin-1-yl)quinazolin-6-yl)pyridin-3-yl) benzene-sulfonamide], for which the figures for the IC50 in experiment [2], in experiment [3] (Table 2) and in experiment [4] (Table 2) were 12.6 nM, 16.7 nM and 14.6 nM, respectively.

For the compound `COc1ncc(-c2ccc3ncnc(N4CCN(C(=O)/C=C/C(C)=O)CC4)c3n2)cc1NS(=O)(=O)c1ccc(F)cc1` [Example 134, (E)-4-fluoro-N-(2-methoxy-5-(4-(4-(4-oxopent-2-enoyl)piperazin-1-yl)pyrido[3,2-d]pyrimidin-6-yl)pyridin-3-yl)benzenesulfonamide], the IC50 in experiment [1] (setting [5]) was 19.6 nM.
